Source: EP2692332A2, “Composition for the treatment of callus, corns, moles, telangiectasias, and psoriasis” (Unigroup ApS, priority 2012, dated 2014)

Format: physicochemical
Conditions: at higher concentrations than salicylic acid

Question: For `O=CO` [formic acid], which “miscibility with ethyl lactate” value is on record?
Answer: Its value is “miscible”.
